Test results taken from patent US8637470B2, “Small humanin-like peptides” (The Regents of the University of California, priority 2008, dated 2014).
“Also recorded” adds a separate entry of the source. Where no end group is shown, it is not given here.

Columns and labels:
[1] = tested on: 22RV1 prostate cancer xenografts; details: mouse, in vivo, ip, 4 mg/kg/day
Method: Inhibition of 22RV1 xenograft tumor growth and angiogenesis in vivo. In light of the pro-apoptotic actions of SHLP6 in vitro and the association of many cancers with mitochondrial dysfunction, the effect of SHLP6 on tumor growth was investigated in vivo. SCID mice harboring 22RV1 prostate cancer xenografts were treated with 4 mg/kg/day SHLP6 or scrambled control peptide by daily i.p. injection for 7 days.
To assess the mechanism underlying the reduction in tumor growth, tumor apoptosis (TUNEL), angiogenesis (VEGF) and tumor cell proliferation (PCNA; not shown) were assessed by IHC (FIG. 19). […] SHLP6 therefore has great potential as an anti-cancer agent.

[2] = target: biotinylated-HN (Homo sapiens, UniProt Q8IVG9); assay: Dot-blot binding to biotinylated-HN; details: 2, 5 or 10 nmol peptide dotted on nitrocellulose
Method: To test a dimerization hypothesis, we performed a dot-blot using biotinylated-HN. Two, 5 or 10 nmol IGF-I (negative control), HN (positive control) or SHLP peptide were dotted on to nitrocellulose membrane, and their ability to bind to biotinylated-HN was assessed immunologically. […] Specific interactions that occur may be determined using, e.g., dot blots with biotinylated SHLPs, and/or antibodies against specific SHLPs.

[3] = tested on: 22RV1 human prostate cancer cells; assay: Cell proliferation (cell number by MTT/MTS cleavage) in 22RV1 cells; assay type: cell-based; details: 22RV1, 100 nM peptide, 72 h
Method: (§1) SHLPs exert distinct effects on cell proliferation. Whether SHLPs have the capacity to influence cell proliferation, in addition to their intrinsic effects on apoptosis induction, was also investigated. Mouse NIT-1 insulinoma β-cells and 22RV1 human prostate cancer cells were serum starved for 24 h, followed by 72 h incubation with 100 nM scrambled control peptide, HN or SHLPs. Cell number, as a measure of cell proliferation, was assessed by cleavage of MTT substrate.
Pro-apoptotic effect on human prostate cancer cells in vitro. To assess the ability of SHLP6 to induce apoptosis in human prostate cancer cells, PC-3, 22RV1 or DU145 cells were incubated in serum free (SF) media for 24 h followed by 24 h incubation with 1 μM scrambled (control) peptide or SHLP6. Apoptosis was assessed by ELISA for fragmentation of histone-associated DNA. In each cell line tested, SHLP6 induced apoptosis by at least 2-fold (FIG. 2), confirming highly significant physiological effects of this novel peptide. To determine whether the effects of SHLP6 were specific to induction of apoptosis, or if it also elicited growth-inhibitory effects, PC-3, DU-145, 22RV1, LAPC4 and LNCaP cells were incubated in SF media for 24 h followed by 72 h incubation with 1 μM SHLP6. Cell number, as a measure of cell proliferation, was assessed by cleavage of MTS substrate.

[4] = tested on: Mouse NIT-1 insulinoma β-cells; assay: Cell proliferation (cell number by MTT/MTS cleavage) in NIT-1 cells; assay type: cell-based; details: NIT-1, 100 nM peptide, 72 h
Method: as §1

[5] = tested on: 22RV1 human prostate cancer cells; assay: Apoptosis ELISA (fragmentation of histone-associated DNA) in 22RV1 cells; assay type: cell-based; details: 22RV1, serum starved 24 h, then 24 h with 100 nM peptide
Method: (§2) SHLPs are anti-apoptotic in 22RV1 prostate cancer cells and NIT-1 β-cells. […] Mouse NIT-1 insulinoma β-cells and 22RV1 human prostate cancer cells were serum starved for 24 h, followed by 24 h incubation with 100 nM scrambled control peptide, HN or SHLPs. Apoptosis was assessed and quantified by ELISA for fragmentation of histone-associated DNA.
(§3) ERK activation is necessary for SHLP-induced inhibition of apoptosis in NIT-1 and 22RV1 cells. To determine the significance of ERK activation for apoptosis inhibition by SHLPs 2 and 3, PD98059 (PD), a specific chemical inhibitor of ERK1/2, was utilized. 22RV1 and NIT-1 cells were serum starved for 24 h in the presence or absence of 25 μM PD or 1 μM wortmannin (PI3-kinase inhibitor; negative control), followed by 24 h incubation with […] scrambled control peptide, SHLP2 or SHLP3. Apoptosis was then assessed by ELISA for fragmentation of histone-associated DNA.
STAT3 Activation is also necessary for SHLP-induced cell survival in 22RV1 cells. Since SHLPs 2 and 3 both stimulate STAT3 phosphorylation in addition to ERK activation, the hypothesis that STAT3 activation occurs downstream of ERK1/2 was tested using a specific chemical inhibitor against STAT3, stattic. 22RV1 cells were incubated for 24 h in SF media in the presence or absence of 20 μM stattic followed by 24 h incubation with 100 nM scrambled control peptide, SHLP2 or SHLP3. Apoptosis was assessed by ELISA for fragmentation of histone-associated DNA. […]

[6] = tested on: ERK; assay: ERK activation in 22RV1 cells (immunoblotting, ELISA); assay type: cell-based, human; details: 22RV1, 100 nM
Method: Characterization of the intracellular signaling pathways activated by SHLPs. To determine a mechanism for the growth and apoptosis effects of SHLPs, SHLPs were tested for the ability to modulate activation of intracellular signaling pathways. 22RV1 cells in SF media were treated with 100 nM SHLP 1-5 and whole cell extracts were harvested after 15 min, 30 min, 2 h, 4 h, 8 h and 24 h. Proteins were separated by SDS-PAGE and analyzed by immunoblotting.
To test the hypothesis that SHLPs may act in concert to regulate intracellular signaling, 22RV1 cells were co-treated with SHLPs 2 and 3, and ERK activation was assessed.
Since HN causes activation of STAT3, SHLPs 2 and 3 were also tested for effects on STAT3. […] To more accurately quantify the ERK phosphorylation caused by SHLPs 2 and 3, we repeated the experiment as described above but used a commercially available ERK ELISA to assess ERK phosphorylation. Optimal ERK activation by SHLP2 was 9-fold after 24 h, whilst optimal activation by SHLP3 was 12-fold after 2 h (FIG. 5).

[7] = tested on: Mouse NIT-1 insulinoma β-cells; assay: Apoptosis ELISA (fragmentation of histone-associated DNA) in NIT-1 cells; assay type: cell-based; details: NIT-1, serum starved 24 h, then 24 h with 100 nM peptide
Method: as §2, §3
Role of IGFBP-3 in effects of SHLPs on cell survival. Since IGFBP-3 is an important regulator of HN action, IGFBP-3 was tested for a possible role in regulating the anti- or pro-apoptotic actions of SHLPs. NIT-1 cells were incubated with 1 μg/ml IGFBP-3±0, 10, 100 or 1000 nM SHLP2 or 3 for 24 h. Apoptosis induction was assessed by ELISA for fragmentation of histone-associated DNA.
Co-incubation of SHLPs. To evaluate therapeutic uses involving co-treatment with SHLPs, the effect of HN±SHLPs on apoptosis was tested in both 22RV1 and NIT-1 cells. Cells were incubated in SF media for 24 h followed by 24 h with 100 nM HN, SHLP or peptide combination. Apoptosis was assessed by ELISA for fragmentation of histone-associated DNA. Cells were treated with all possible double peptide combinations. Although many peptide combinations had no additive or combined effects compared with the actions of the peptides individually, co-treatment with certain combinations led to unexpected functional changes (FIG. 11). […] Thus, specific SHLPs may either act on complementary pathways, or interact with each other, leading to change of function of one or both peptides. When the same experiments were repeated in NIT-1 cells, similar, but different, change of function effects were observed (FIG. 11B).

[8] = tested on: S. cerevisiae; assay: Yeast heat shock survival; assay type: cell-based; details: 10 μM peptide, 90° heat shock
Method: SHLPs enhance stress resistance in yeast. The ability of SHLPs to enhance stress resistance in yeast was tested. The ability of yeast to survive heat shock after being treated with different peptides is a commonly used method to test the ability of peptides to enhance yeast survival.

[9] = tested on: Mouse primary cortical neurons; assay: Protection of primary cortical neurons from Aβ-induced cell death (Calcein-AM); assay type: cell-based; details: 72 h
Method: SHLPs protect neurons from Aβ-induced apoptosis. When it was first discovered, HN was described as a potent neural survival factor with clinical implications as a therapeutic agent against neurodegenerative diseases such as Alzheimer's Disease. Since many of the SHLPs appear to be functionally related to HN, SHLPs were tested as potential neuroprotective factors. Mouse primary cortical neurons were incubated with 25 μM Aβ1-43 in the presence or absence of 100 nM SHLP2 or 3, HNG (positive control) or 1 nM colivelin (positive control). After 72 h, neuronal viability was assessed by Calcein-AM staining followed by fluorescence microscopy (FIG. 13).

Substance | Binding to biotinylated-HN (dot-blot) [2] | Cell number as a measure of cell proliferation [3] | Cell number as a measure of cell proliferation [4] | Apoptosis (fragmentation of histone-associated DNA) [5] | also measured
MLDQDIPMVQPLLKVRLFND [SHLP6] |  |  |  |  | Signs of toxicity [1]: no detectable signs of toxicity
MCHWAGGASNTGDARGDVFGKQAG [SHLP1, small humanin-like peptide, mtDNA 2490-2561] | no interaction | slightly stimulated the proliferation | slightly stimulated the proliferation | minimal effect | Duration of sustained ERK phosphorylation [6]: approximately 8 h; Increase in ERK phosphorylation (immunoblotting) ([6]; within 30 min): 5 fold
MYCSEVGFCSEVAPTEIFNAGLVV [SHLP5, small humanin-like peptide, mtDNA 2785-2856] |  | slightly stimulated the proliferation | slightly stimulated the proliferation | minimal effect | ERK activation profile (immunoblotting) ([6]; 15 min to 24 h): no observable effect
MLEVMFLVNRRGKICRVPFTFFNLSL [SHLP4, small humanin-like peptide, mtDNA 2446-2524] | very strong interactions; also recorded: binds | slightly stimulated the proliferation | slightly stimulated the proliferation | minimal effect | Apoptosis (fragmentation of histone-associated DNA) [7]: anti-apoptotic effects
MAPRGFSCLLLLTSEIDLPVKRRA [HN, reference compound] | dimerize/multimerize with itself |  |  |  | Yeast survival of heat shock [8]: allowed the yeast to withstand 90° heat shock; Apoptosis (fragmentation of histone-associated DNA) [7]: anti-apoptotic effects
colivelin [reference compound] |  |  |  |  | Neuronal viability against Aβ-induced cell death ([9]; 25 μM Aβ1-43, 1 nM colivelin): inhibited
HNG: HNG (S14G), hyper-potent HN analog (MAPRGFSCLLLLTGEIDLPVKRRA; Humanin; UniProt Q8IVG9 1-24, looked up, variant S14G) [reference compound] |  |  |  |  | Neuronal viability against Aβ-induced cell death ([9]; 25 μM Aβ1-43, 100 nM peptide): inhibited
